pKi: −log10 of the molar value. Where two headings read alike, the source gives them in different places.
Biological target: HPK1 (Homo sapiens, UniProt Q92918)
Assay: HPK1 Lantha Binding Assay ("Lanth")
Settings: for Ki: Table B1-1, read-out: HPK1 Ki (μM) (Lanth)
In short: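 TR-FRET tracer displacement with 2 nM GST-tagged kinase, 2 nM Eu-anti-GST antibody and 15 nM Tracer222 at 23 C. Enzyme–antibody preincubated 1 h with compound, then tracer added for 1 h; 340 nm excitation, 615/665 nm emission. Ki from Morrison fit over an 11-point 5-fold dilution.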

Sequence of HPK1 (Q92918 whole entry, looked up): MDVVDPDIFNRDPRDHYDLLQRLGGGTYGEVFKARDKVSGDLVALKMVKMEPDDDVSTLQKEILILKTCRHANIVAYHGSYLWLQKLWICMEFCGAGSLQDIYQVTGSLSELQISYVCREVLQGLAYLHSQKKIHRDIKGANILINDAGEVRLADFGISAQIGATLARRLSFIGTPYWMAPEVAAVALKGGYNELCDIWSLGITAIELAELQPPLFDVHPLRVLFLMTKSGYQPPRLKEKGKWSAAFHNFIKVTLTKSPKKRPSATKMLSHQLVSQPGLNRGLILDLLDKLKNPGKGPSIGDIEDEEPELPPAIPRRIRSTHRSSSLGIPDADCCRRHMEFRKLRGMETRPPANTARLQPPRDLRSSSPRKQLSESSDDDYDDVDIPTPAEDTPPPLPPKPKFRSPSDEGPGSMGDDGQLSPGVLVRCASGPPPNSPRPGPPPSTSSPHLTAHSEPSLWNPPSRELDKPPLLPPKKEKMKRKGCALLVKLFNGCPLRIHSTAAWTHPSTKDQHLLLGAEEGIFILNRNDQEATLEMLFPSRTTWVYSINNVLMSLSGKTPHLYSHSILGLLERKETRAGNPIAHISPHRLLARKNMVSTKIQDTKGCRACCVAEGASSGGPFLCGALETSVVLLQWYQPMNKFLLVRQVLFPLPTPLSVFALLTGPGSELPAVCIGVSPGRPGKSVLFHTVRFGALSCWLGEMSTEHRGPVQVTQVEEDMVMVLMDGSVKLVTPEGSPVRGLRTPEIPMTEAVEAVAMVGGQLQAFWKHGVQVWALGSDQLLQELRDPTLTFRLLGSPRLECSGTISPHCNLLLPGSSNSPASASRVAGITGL

Row | Ki [nM] | pKi (Table B1-2, read-out: HPK1 Ki, L = Lanth) | SMILES
1 | 0.02 |  | CC(=O)N1CCC(n2cc(Nc3cc4cc(-c5cnccc5C)nc(N)c4cn3)cn2)C1 (racemic) [Compound 218, (+/−)-1-(3-(4-(8-amino-6-(4-methylpyridin-3-yl)-2,7-naphthyridin-3-ylamino)-1H-pyrazol-1-yl)pyrrolidin-1-yl)ethanone]
2 | 0.592 |  | Cc1ccncc1-c1cc2cc(Nc3cnn([C@H]4CCN(C5COC5)C[C@@H]4O)c3)ncc2c(N)n1 (racemic) [Compound 220, (+/−)-trans-4-(4-(8-amino-6-(4-methylpyridin-3-yl)-2,7-naphthyridin-3-ylamino)-1H-pyrazol-1-yl)-1-(oxetan-3-yl)piperidin-3-ol]
3 | 0.026 |  | Cc1ccncc1-c1cc2cc(Nc3cc(C(C)O)n(C)n3)ncc2c(N)n1 (racemic) [Compound 221, (+/−)-1-(3-(8-amino-6-(4-methylpyridin-3-yl)-2,7-naphthyridin-3-ylamino)-1-methyl-1H-pyrazol-5-yl)ethanol]
4 | 15.2 |  | N#Cc1ccccc1-c1cc2cc(NC(=O)[C@H]3C[C@@H]3C#N)ncc2c(N)n1 (racemic) [Compound 224, (+/−)-trans-N-(8-amino-6-(2-cyanophenyl)-2,7-naphthyridin-3-yl)-2-cyanocyclopropanecarboxamide]
5 | 84.2 |  | CC(C)(O)Cc1ccncc1-c1cc2cc(NC(=O)[C@H]3C[C@@H]3C#N)ncc2c(N)n1 (racemic) [Compound 225, (+/−)-trans-N-(8-amino-6-(4-(2-hydroxy-2-methylpropyl)pyridin-3-yl)-2,7-naphthyridin-3-yl)-2-cyanocyclopropanecarboxamide]
6 | 58.6 |  | CNC(=O)c1cncc(-c2cc3cc(NC(=O)[C@@H]4C[C@@H]4F)ncc3c(N)n2)c1C (racemic) [Compound 226, cis-5-(1-amino-6-(-2-fluorocyclopropanecarboxamido)-2,7-naphthyridin-3-yl)-N,4-dimethylnicotinamide]
7 | 38.7 |  | N#CCc1ccncc1-c1cc2cc(NC(=O)[C@H]3C[C@@H]3C#N)ncc2c(N)n1 (racemic) [Compound 227, (+/−)-trans-N-(8-amino-6-(4-(cyanomethyl)pyridin-3-yl)-2,7-naphthyridin-3-yl)-2-cyanocyclopropanecarboxamide]
8 | 11 |  | COCc1ccncc1-c1cc2cc(NC(=O)[C@H]3C[C@@H]3C#N)ncc2c(N)n1 (racemic) [Compound 228, (+/−)-trans-N-(8-amino-6-(4-(methoxymethyl)pyridin-3-yl)-2,7-naphthyridin-3-yl)-2-cyanocyclopropanecarboxamide]
9 | 0.147 |  | Cc1ccc(O)cc1-c1cc2cc(NC(=O)[C@H]3C[C@@H]3c3cnn(C)c3)ncc2c(N)n1 (racemic) [Compound 268, (+/−)-trans-N-[8-amino-6-(5-hydroxy-2-methylphenyl)-2,7-naphthyridin-3-yl]-2-(1-methyl-1H-pyrazol-4-yl)cyclopropane-1-carboxamide]
10 | 1.43 |  | Cc1cc(C(=O)O)ncc1-c1cc2cc(NC(=O)[C@H]3C[C@@H]3c3cnn(C)c3)ncc2c(N)n1 (racemic) [Compound 342, (±)-trans-5-(1-amino-6-((1S,2S)-2-(1-methyl-1H-pyrazol-4-yl)cyclopropane-1-carboxamido)-2,7-naphthyridin-3-yl)-4-methylpicolinic acid]
11 | 2.44 |  | CNC(=O)c1cc(C)c(-c2cc3cc(NC(=O)[C@H]4C[C@@H]4c4cnn(C)c4)ncc3c(N)n2)cn1 (racemic) [Compound 346, (±)-5-(1-amino-6-((trans)-2-(1-methyl-1H-pyrazol-4-yl)cyclopropane-1-carboxamido)-2,7-naphthyridin-3-yl)-N,4-dimethylpicolinamide]
12 |  | 7.85 | Cc1cccc(CC#N)c1-c1cc2cc(NC(=O)[C@H]3C[C@@H]3c3cnn(C)c3)ncc2c(N)n1 (racemic) [Compound 382, (+/−)-trans-N-(8-amino-6-(2-(cyanomethyl)-6-methylphenyl)-2,7-naphthyridin-3-yl)-2-(1-methyl-1H-pyrazol-4-yl)cyclopropane-1-carboxamide]

— patent US11034692B1 (Genentech, Inc., priority 2017, dated 2021)
